Measurements from the supplement of paper PMC10307832.

Assays:
Experiment in all cases: relative viability (nuclei count vs DMSO), 5 days (fraction); higher = more cells survive
EHT 1864 + Navitoclax = compound: C1COCCN1CC2=CC(=O)C(=CO2)OCCCCCSC3=C4C=CC(=CC4=NC=C3)C(F)(F)F [EHT 1864] + CC1(C)CCC(c2ccc(Cl)cc2)=C(CN2CCN(c3ccc(C(=O)NS(=O)(=O)c4ccc(N[C@H](CCN5CCOCC5)CSc5ccccc5)c(S(=O)(=O)C(F)(F)F)c4)cc3)CC2)C1 [Navitoclax] (partner 0.5 µM)
Outline: (§1)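 A single step with final 0.05% Triton X-100, 1% formaldehyde and 1 ug/ml Hoechst fixed the cells and stained nuclei 5 days after treatment. Lung cancer cell lines in 1536-well plates had been treated by pin tool the day after seeding with one drug alone or a fixed anchor-drug dose plus five library-drug doses (not always all listed) in √10 steps, and nuclei were counted on 4× images. Relative viability is the ratio of nuclei in treated wells to nuclei in vehicle wells, taken as the median of duplicate plates.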

EHT 1864 + Linsitinib = compound: C1COCCN1CC2=CC(=O)C(=CO2)OCCCCCSC3=C4C=CC(=CC4=NC=C3)C(F)(F)F [EHT 1864] + C[C@]1(O)C[C@@H](c2nc(-c3ccc4ccc(-c5ccccc5)nc4c3)c3c(N)nccn32)C1 [Linsitinib] (partner 1 µM)
Outline: as §1

EHT 1864 + Alpelisib = compound: C1COCCN1CC2=CC(=O)C(=CO2)OCCCCCSC3=C4C=CC(=CC4=NC=C3)C(F)(F)F [EHT 1864] + Cc1nc(NC(=O)N2CCC[C@H]2C(N)=O)sc1-c1ccnc(C(C)(C)C(F)(F)F)c1 [Alpelisib] (partner 2 µM)
Outline: as §1

EHT 1864 + Vorinostat = compound: C1COCCN1CC2=CC(=O)C(=CO2)OCCCCCSC3=C4C=CC(=CC4=NC=C3)C(F)(F)F [EHT 1864] + O=C(CCCCCCC(=O)Nc1ccccc1)NO [Vorinostat] (partner 1 µM)
Outline: as §1

Row | Cell Line | relative viability (EHT 1864 + Navitoclax; first compound 0.04 µM) | relative viability (EHT 1864 + Navitoclax; first compound 0.1265 µM) | relative viability (EHT 1864 + Navitoclax; first compound 0.4 µM) | relative viability (EHT 1864 + Navitoclax; first compound 1.265 µM) | relative viability (EHT 1864 + Navitoclax; first compound 4 µM) | relative viability (EHT 1864 + Linsitinib; first compound 0.04 µM) | relative viability (EHT 1864 + Linsitinib; first compound 0.1265 µM) | relative viability (EHT 1864 + Linsitinib; first compound 0.4 µM) | relative viability (EHT 1864 + Linsitinib; first compound 1.265 µM) | relative viability (EHT 1864 + Linsitinib; first compound 4 µM) | relative viability (EHT 1864 + Alpelisib; first compound 0.04 µM) | relative viability (EHT 1864 + Alpelisib; first compound 0.1265 µM) | relative viability (EHT 1864 + Alpelisib; first compound 0.4 µM) | relative viability (EHT 1864 + Alpelisib; first compound 1.265 µM) | relative viability (EHT 1864 + Alpelisib; first compound 4 µM) | relative viability (EHT 1864 + Vorinostat; first compound 0.04 µM) | relative viability (EHT 1864 + Vorinostat; first compound 0.1265 µM) | relative viability (EHT 1864 + Vorinostat; first compound 0.4 µM) | relative viability (EHT 1864 + Vorinostat; first compound 1.265 µM) | relative viability (EHT 1864 + Vorinostat; first compound 4 µM)
1 | LK-2 | 0.839 | 0.674 | 0.847 | 0.94 | 0.784 | 0.543 | 0.527 | 0.538 | 0.623 | 0.724 | 1.19 | 0.972 | 1.07 | 1.14 | 0.499 | 0.312 | 0.265 | 0.206 | 0.253 | 0.284
2 | HCC-366 | 1.14 | – | 1.01 | 0.995 | 1.14 | 0.647 | – | 0.699 | 0.598 | 0.522 | 0.426 | – | 0.492 | 0.401 | 0.285 | 0.336 | 0.0895 | 0.312 | 0.327 | 0.337
3 | HOP-62 | 0.915 | – | 1.02 | 0.977 | 1.22 | 1.13 | – | 0.865 | 0.943 | 1.03 | 1.03 | – | 0.838 | 0.796 | 0.884 | 0.631 | – | 0.616 | 0.676 | 0.667
4 | SW 1573 | 0.999 | 0.978 | 1.01 | 0.958 | 0.725 | 0.923 | 0.943 | 0.812 | 0.814 | 0.709 | 0.772 | 0.896 | 0.737 | 0.608 | 0.719 | 0.922 | – | 0.674 | 1.07 | 0.671
5 | LU99A | 0.689 | 0.566 | 0.716 | 0.818 | 0.933 | 0.514 | 0.4 | 0.5 | 0.607 | 0.539 | 0.495 | 0.381 | 0.452 | 0.583 | 0.54 | 0.58 | 0.347 | 0.426 | 0.579 | 0.324
6 | NCI-H647 | 0.981 | 0.837 | 1.17 | 1.12 | 1.05 | 1.03 | 1.13 | 1.2 | 1.15 | 0.983 | 1.21 | 1.04 | 1.26 | 0.977 | 1.18 | 0.612 | 0.455 | 0.512 | 0.762 | 0.485
7 | A-427 | 1.15 | 0.941 | 0.823 | 0.911 | 0.884 | 1.09 | 1.18 | 1.15 | 1.11 | 1.13 | 1.15 | 1.08 | 1.04 | 1.11 | 1.13 | 0.928 | 0.819 | 0.885 | 0.879 | 0.801
8 | COR-L 105 | 0.883 | 0.783 | 0.801 | 0.707 | 0.723 | 0.889 | 0.963 | 0.906 | 1.12 | 0.848 | 0.906 | 1.06 | 1.03 | 0.969 | 0.841 | 0.99 | 0.699 | 0.949 | 0.847 | 0.778
9 | NCI-H441 | 0.542 | 0.536 | 0.513 | 0.611 | 0.233 | 0.517 | 0.574 | 0.503 | 0.461 | 0.561 | 0.73 | 0.644 | 0.532 | 0.779 | 0.729 | 0.975 | – | 0.713 | 0.75 | 0.735
10 | NCI-H2126 | 0.92 | 0.76 | 0.823 | 0.853 | 0.814 | 0.733 | 0.691 | 0.746 | 0.726 | 0.72 | 0.755 | 0.757 | 0.718 | 0.801 | 0.748 | 0.836 | 0.711 | 0.735 | 0.795 | 0.681
11 | HCC-44 | 1.02 | 0.951 | 0.905 | 0.904 | 1.08 | 0.692 | 0.58 | 0.598 | 0.642 | 0.621 | 0.801 | 0.703 | 0.751 | 0.695 | 0.857 | 1.08 | 0.984 | 1.06 | 1.08 | 1.13
12 | NCI-H460 | 1.11 | 1.16 | 1.03 | 1.16 | 1.02 | 0.76 | 0.603 | 0.747 | 0.624 | 0.845 | 0.427 | 0.57 | 0.475 | 0.444 | 0.486 | – | 0.718 | 0.703 | 0.654 | 0.647
13 | SK-LU-1 | 0.867 | 0.768 | 0.824 | 1.01 | 0.744 | 1.09 | 1 | 0.95 | 1.11 | 1.12 | 1.02 | 1.02 | 0.928 | 0.996 | 0.815 | 0.81 | 0.726 | 0.725 | 0.707 | 0.679
14 | NCI-H322M | 1.13 | 1.26 | 1.13 | 1.29 | 1.23 | 0.89 | 0.806 | 0.98 | 0.878 | 0.968 | 0.763 | 0.747 | 0.821 | 0.81 | 0.959 | 0.856 | 0.921 | 0.863 | 0.807 | 0.789
15 | EKVX | 0.937 | 0.906 | 0.88 | 0.857 | 1.03 | 0.886 | 0.976 | 1.04 | 1.08 | 1.02 | 0.894 | 0.836 | 0.875 | 0.871 | 0.795 | 0.749 | 0.524 | 0.69 | 0.743 | 0.631
16 | NCI-H1734 | 0.916 | 0.828 | 0.849 | 0.867 | 0.747 | 0.867 | 0.902 | 0.863 | 0.919 | 0.77 | 0.741 | 0.629 | 0.627 | 0.609 | 0.64 | 0.94 | 0.532 | 0.818 | 0.751 | 0.837
17 | NCI-H520 | 0.999 | 1.07 | 1.06 | 1.08 | 1.06 | 0.917 | 0.998 | 0.747 | 0.813 | 0.913 | 0.967 | 0.954 | 0.883 | 0.889 | 0.876 | 0.734 | 0.628 | 0.696 | 0.758 | 0.715
18 | EPLC-272H | 1.11 | 1.05 | 1.18 | 1.28 | 1.24 | 1.4 | 1.16 | 1.04 | 1.32 | 1.25 | 1.08 | 0.933 | 0.977 | 1.07 | 0.999 | 0.454 | 0.565 | 0.567 | 0.662 | 0.33
19 | UMC-11 | 0.345 | 0.294 | 0.27 | 0.304 | 0.322 | 1.02 | 0.978 | 0.986 | 0.962 | 0.963 | 0.887 | 1.01 | 0.976 | 0.962 | 1.02 | 0.372 | 0.482 | 0.41 | 0.398 | 0.534
20 | NCI-H1993 | 0.84 | 0.697 | 0.866 | 1.08 | 0.849 | 0.735 | 0.757 | 0.709 | 0.778 | 0.695 | 0.733 | 0.658 | 0.568 | 0.679 | 0.732 | 0.896 | – | 0.912 | 0.806 | 0.863
21 | NCI-H596 | 1.1 | 0.892 | 1.08 | 0.812 | 0.888 | 1.06 | 1.11 | 0.989 | 0.906 | 0.964 | 0.524 | 0.529 | 0.506 | 0.434 | 0.514 | 0.724 | 0.476 | 0.694 | 0.577 | 0.657
22 | NCI-H1944 | 1.06 | – | 0.985 | 1.05 | 1.06 | 1.28 | – | 1.21 | 1.25 | 1.25 | 0.828 | – | 0.805 | 0.803 | 0.984 | 0.528 | – | 0.595 | 0.514 | 0.661
23 | NCI-H1395 | 1.12 | 1.02 | 1.18 | 0.967 | 0.875 | 1.02 | 0.982 | 0.957 | 1.16 | 1.02 | 1.54 | 0.942 | 1.01 | 0.967 | 1.38 | 0.775 | 0.552 | 0.819 | 0.607 | 0.681
24 | HCC-827 | 1.1 | 0.844 | 0.96 | 1.02 | 0.944 | 0.953 | 0.858 | 1.01 | 0.926 | 0.876 | 0.981 | 0.887 | 0.958 | 0.953 | 0.891 | 0.932 | 0.59 | 0.843 | 0.96 | 0.602
25 | NCI-H2228 | 1.08 | 0.847 | 0.755 | 0.836 | 0.827 | 0.655 | 0.635 | 0.802 | 0.661 | 0.478 | 0.776 | 0.813 | 0.732 | 0.594 | 0.713 | 0.658 | 0.641 | 0.571 | – | 0.365
26 | EMC-BAC-2 | 1.09 | 1.09 | 1.12 | 1.13 | 1.2 | 0.803 | 0.757 | 0.792 | 0.815 | 0.784 | 0.694 | 0.682 | 0.718 | 0.705 | 0.768 | 0.45 | 0.383 | 0.503 | 0.427 | 0.504
27 | NCI-H23 | 0.718 | – | 0.627 | 0.784 | 0.816 | 0.522 | – | 0.443 | 0.59 | 0.551 | 0.664 | – | 0.781 | 0.738 | 0.807 | 0.627 | 0.343 | 0.582 | 0.578 | 0.532
